In one test the target is T1, Ba/F3 Bcr-Abl/WT (Homo sapiens, UniProt P00519).
T1 construct: fused on or other part: P11274 (Breakpoint cluster region protein)
In words: CCK-8 assay, Ba/F3 Bcr-Abl/WT. Conditions: CCK-8, 72 h, imatinib mesylate sensitive; read-out: Inhibitory concentration (IC50), Ba/F3 Bcr-Abl/WT. It counts as cell-based. The source says:
(§1) The cell lines described in Table 3 were used to test the antiproliferative activity of test compounds.
(§2) Cell Counting Kit-8 (CCK-8) allows very convenient assay by utilizing Dojindo's highly water-soluble tetrazolium salt. CCK-8, being nonradioactive, allows sensitive colorimetric assay for the determination of number of viable cells in cell proliferation and cytotoxicity assays. The amount of the formazan dye generated by dehydrogenases in cells is directly proportional to the number of living cells. Thus, the CCK-8 assay can also be substituted for the H^3-Thymidine incorporation assay.
(§3) Plates were further incubated at 37° C., 5% CO2 incubator for 72 h. 10 μl of the CCK-8 solution was added to each well and plate was incubated for 1-4 h in the incubator. Measured the absorbance at 450 nm using a microplate reader.
(§4) A. The percent inhibition and IC50 were calculated in comparison with control values.

The next test addresses T2, Ba/F3 Bcr-Abl/Q252H (Homo sapiens, UniProt P00519, Q252H, cells depend on it).
T2 construct: fused on or other part: P11274 (Breakpoint cluster region protein)
Nature of the test: CCK-8 assay, Ba/F3 Bcr-Abl/Q252H. Format: cell-based. Conditions: mouse, 72 h. (In general: Formazan colour is commonly taken as a measure of viable cells.)

The next test deals with T3, Ba/F3 Bcr-Abl/H396R (Homo sapiens, UniProt P00519, H396R, cells depend on it).
T3 construct: fused on or other part: P11274 (Breakpoint cluster region protein)
Nature of the test: CCK-8 assay, Ba/F3 Bcr-Abl/H396R. Format: cell-based. Conditions: mouse, 72 h.

The target of the next test is T4, Ba/F3 Bcr-Abl/Y253F (Homo sapiens, UniProt P00519, Y253F, cells depend on it).
T4 construct: fused on or other part: P11274 (Breakpoint cluster region protein)
Nature of the test: CCK-8 assay, Ba/F3 Bcr-Abl/Y253F. Particulars: mouse, 72 h. It counts as cell-based.

The target in another test is Ba/F3 Bcr-Abl/T315I (Homo sapiens, UniProt P00519, T315I, cells depend on it).
Description: as §1, §2, §3, §4

In the next test the target is T5, Ba/F3 Bcr-Abl/E255K (Homo sapiens, UniProt P00519, E255K, cells depend on it).
T5 construct: fused on or other part: P11274 (Breakpoint cluster region protein)
In words: CCK-8 assay, Ba/F3 Bcr-Abl/E255K. Format: cell-based. Particulars: mouse, 72 h.

A further test concerns the target T6, Ba/F3 Bcr-Abl/F317L (Homo sapiens, UniProt P00519, F317L, cells depend on it).
T6 construct: fused on or other part: P11274 (Breakpoint cluster region protein)
In words: CCK-8 assay, Ba/F3 Bcr-Abl/F317L. Format: cell-based. Particulars: mouse, 72 h.

The target in the next test is T7, Ba/F3 Bcr-Abl/Y253H (Homo sapiens, UniProt P00519, Y253H, cells depend on it).
T7 construct: fused on or other part: P11274 (Breakpoint cluster region protein)
Nature of the test: CCK-8 assay, Ba/F3 Bcr-Abl/Y253H. Format: cell-based. Conditions: mouse, 72 h.

For the next test, the target named is T8, Ba/F3 Bcr-Abl/F359V (Homo sapiens, UniProt P00519, F359V, cells depend on it).
T8 construct: fused on or other part: P11274 (Breakpoint cluster region protein)
Nature of the test: CCK-8 assay, Ba/F3 Bcr-Abl/F359V. Format: cell-based. Conditions: mouse, 72 h.

The target in a further test is T9, Ba/F3 Bcr-Abl/H396P (Homo sapiens, UniProt P00519, H396P, cells depend on it).
T9 construct: fused on or other part: P11274 (Breakpoint cluster region protein)
Nature of the test: CCK-8 assay, Ba/F3 Bcr-Abl/H396P. Format: cell-based. Conditions: mouse, 72 h.

Another test deals with K-562. In words: 3H-Thymidine uptake cell proliferation assay, K-562. It counts as cell-based. Conditions: Homo sapiens, K562, 72 h incubation, read-out: Antiproliferative activity IC50, K-562. As for the experimental part:
(§5) ^3H-Thymidine uptake assay: ^3H-Thymidine-incorporation is directly proportional to the number of dividing cells in culture.
(§6) Exponentially growing cultures were subjected to different concentrations of test compounds and standard as given below.
(§7) Cells were seeded at a density of 3×10^3 to 5×10^3 per well (in 0.180 mL) in transparent 96 well tissue culture plate (NUNC, USA) and were allowed to incubate at 37° C. in 5% carbon dioxide incubator for 2-6 h. Test compounds were diluted in medium (RPMI1640 with 10% FBS) at various concentrations, and 0.02 mL of 10× stocks were added to each well in triplicate. Plates were incubated at 37° C. in 5% carbon dioxide incubator for 72 h, with an intermittent microscopic observation every 24 h.
(§8) After 72 h incubation, the plate was centrifuged at 1000 rpm for 10 mins in a plate centrifuge. Supernatant was carefully aspirated and ^3H-Thymidine was added to all wells at a concentration of 0.5 μCi/well in 0.1 mL complete medium. Plates were further incubated at 37° C. in 5% carbon dioxide incubator for 6-14 h.
(§9) The filter plate was dried completely at 60° C. for 1 h, or overnight (16 h) at room temperature (25° C.). […] The plate was sealed from the top, read on scintillation counter (TopCount, Packard), and percent inhibition and IC50 in comparison with control values was calculated.

The target in another test is T10, Ba/F3 Bcr-Abl/M351T (Homo sapiens, UniProt P00519, M351T, cells depend on it).
T10 construct: fused on or other part: P11274 (Breakpoint cluster region protein)
Nature of the test: CCK-8 assay, Ba/F3 Bcr-Abl/M351T. It counts as cell-based. Particulars: mouse, 72 h.

For the next test, the system named is K562. Nature of the test: CCK-8 cell proliferation and cytotoxicity assay, K562. Format: cell-based, Human. Conditions: Homo sapiens, K562, 72 h; read-out: Inhibitory concentration (IC50), K562.
Test [1] addresses T11, p210^bcr-abl tyrosine kinase (Homo sapiens, UniProt P00519).
T11 construct: immunoprecipitation of p210^bcr-abl tyrosine kinase from K-562 cell lysate; BCR (natural N-terminal fusion partner of the p210 BCR-ABL oncoprotein); endogenous in cells; host or cells: K-562 (human leukemic cell line); the other entry of the earlier key: BCR (P11274, Breakpoint cluster region protein)
In words: Bcr-abl kinase assay: autophosphorylation after immunoprecipitation from treated K-562 cells. It counts as cell-based. Particulars: K-562 cells treated at IC50 and 3×IC50 for 24 h. On the procedure: To study inhibition of autophosphorylation of Bcr-abl. Study was carried out by immunoprecipitation of p210^bcr-abl tyrosine kinase from K-562 cell lysate, followed by kinase enzyme assay. The reaction mixture was subjected to SDS-PAGE followed by autoradiography.
To check for the inhibition of autophosphorylation of p210^bcr-abl tyrosine kinase by compounds of the present invention, K-562 cells which express wild type Bcr-abl were used. […] Cells were washed with PBS solution and lysed using lysis buffer (CelLytic M Cell Lysis reagent, Sigma Aldrich, USA) for 2-3 h in cold conditions. Protein was estimated by Bradford method (Bradford reagent, Sigma Aldrich, USA). For immunoprecipitation equal amount of protein is taken from all samples. A p210^bcr-abl protein was immunoprecipitated using polyclonal anti-c-abl antibody (Santa Cruz Biotechnologies, USA) followed by incubation at 4° C. overnight with Protein A-Sepharose. […]
Kinase reaction was performed using 0.5 μCi (γ^32P)-adenosine triphosphate per reaction and incubated for 30 minutes at room temperature (25° C.). […] Autophosphorylation reaction products are resolved on SDS-PAGE and detected by autoradiography.

Another test has as its target T12, Ba/F3 Bcr-Abl/E255V (Homo sapiens, UniProt P00519, E255V, cells depend on it).
T12 construct: fused on or other part: P11274 (Breakpoint cluster region protein)
Nature of the test: CCK-8 assay, Ba/F3 Bcr-Abl/E255V. Format: cell-based. Conditions: mouse, 72 h.

The target of another test is T13, 32Dcl^Bcr-Abl T315I (Homo sapiens, UniProt P00519, T315I, cells depend on it).
T13 construct: Mouse fibroblast with T315I mutated Bcr-Abl; fused on or other part: P11274 (Breakpoint cluster region protein)
In words: 3H-Thymidine uptake cell proliferation assay, 32Dcl Bcr-Abl T315I. Format: cell-based, Mouse. Particulars: 72 h incubation, read-out: Antiproliferative activity IC50, 32Dcl^Bcr-Abl T315I. As for the experimental part: as §5, §6, §7, §8, §9

The test system of a further test is K-562-R. In words: 3H-Thymidine uptake cell proliferation assay, K-562-R. Format: cell-based. Conditions: Homo sapiens, 72 h incubation, K-562-R (GLEEVEC resistant), read-out: Antiproliferative activity IC50, K-562-R. On the procedure: as §5, §6, §7, §8, §9
Another test concerns the target T14, Ba/F3 Bcr-Abl/M244V (Homo sapiens, UniProt P00519, M244V, cells depend on it).
T14 construct: fused on or other part: P11274 (Breakpoint cluster region protein)
In words: CCK-8 assay, Ba/F3 Bcr-Abl/M244V. Particulars: mouse, 72 h. Format: cell-based.

Each structure is given as a SMILES string. Read-outs that look alike come from different tables or passages of the source.

In the case of `COC(=O)C=Cc1ccc(O)c(O)c1` [Compound 2, 3-(3,4-Dihydroxy-phenyl)-acrylic acid methyl ester], the GI50 at Ba/F3 Bcr-Abl/WT came to 7.9 ± 2.1 µM; on Ba/F3 Bcr-Abl/Q252H it was 15.4 µM; at Ba/F3 Bcr-Abl/H396R, 18.8 µM; at Ba/F3 Bcr-Abl/Y253F, 17 µM; at Ba/F3 Bcr-Abl/T315I (mouse, ba/f3 bcr-abl/t315i, 72 h), 6.3 µM; at Ba/F3 Bcr-Abl/T315I (read-out: Inhibitory concentration (IC50), Ba/F3 Bcr-Abl/T315I, CCK-8, 72 h, imatinib mesylate resistant, Table 4) it was 3.8 ± 1.9 µM. Also, the GI50 turned out to be 15 µM at Ba/F3 Bcr-Abl/E255K; 23.5 µM at Ba/F3 Bcr-Abl/F317L; 14.5 µM at Ba/F3 Bcr-Abl/Y253H; 18.4 µM on Ba/F3 Bcr-Abl/F359V; 26.2 µM at Ba/F3 Bcr-Abl/H396P; 16.1 µM on Ba/F3 Bcr-Abl/M351T. Besides, the GI50 at Ba/F3 Bcr-Abl/E255V was determined as 18.9 µM; on 32Dcl^Bcr-Abl T315I it was 35 µM; at Ba/F3 Bcr-Abl/M244V it was 30.1 µM. Further, the IC50 in the test with K-562 is 13.6 ± 2.3 µM; in the test with K562, 13.3 ± 2.1 µM; in the test with K-562-R, 23 µM. In addition, the “Inhibition of autophosphorylation of Bcr-abl (band density, autoradiography)” value in [1] is recorded as “potent Bcr-abl tyrosine kinase inhibitor”.

Values taken from patent publication US20100010002A1, “ANTICANCER USE OF CAFFEIC ACID AND ITS DERIVATIVES” (Piramal Life Sciences Limited, priority 2006, published 2010).
